Laboratory results as given in article PMC2932887 (Journal of medicinal chemistry, 2010).
Where two headings read alike, the source gives them in different places.

Assays:
recombinant rat NAAA [1] = biological target: T1, recombinant rat NAAA (Rattus norvegicus, UniProt Q5KTC7); assay: NAAA assay: inhibition of heptadecenoylethanolamide hydrolysis; assay type: biochemical; conditions: for NAAA inhibitory activity (in words): recombinant rat NAAA
T1 sequence (Q5KTC7 131-362 limits assumed): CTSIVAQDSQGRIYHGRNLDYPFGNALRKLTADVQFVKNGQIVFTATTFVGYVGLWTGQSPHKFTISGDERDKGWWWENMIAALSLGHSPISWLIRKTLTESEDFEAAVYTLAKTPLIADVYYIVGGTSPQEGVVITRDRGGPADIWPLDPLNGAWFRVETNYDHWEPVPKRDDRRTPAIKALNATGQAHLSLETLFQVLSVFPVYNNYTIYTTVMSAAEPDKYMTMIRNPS
T1 sequence (Q5KTC7 34-130 partner limits assumed): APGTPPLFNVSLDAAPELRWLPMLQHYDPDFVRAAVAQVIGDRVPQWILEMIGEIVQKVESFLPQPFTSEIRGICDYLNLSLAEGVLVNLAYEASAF

monoacylglycerol lipase = conditions: cited from earlier work
recombinant rat NAAA [2] = biological target: T1, recombinant rat NAAA; conditions: intracellular NAAA activity; cited from earlier work
FAAH = conditions: cited from earlier work
[3] = tested on: diacylglycerol lipase type-α; conditions: cited from earlier work
[4] = biological target: T2, Recombinant NAAA expressed in HEK-293 Cells (Rattus norvegicus, UniProt Q5KTC7); assay: Michaelis-Menten analysis of NAAA in presence of inhibitor; assay type: biochemical
T2 sequence (Q5KTC7 131-362 limits assumed): T1 sequence (Q5KTC7 131-362 limits assumed)
T2 sequence (Q5KTC7 34-130 partner limits assumed): T1 sequence (Q5KTC7 34-130 partner limits assumed)

SMILES | NAAA inhibitory activity (in words) (recombinant rat NAAA [1]) | other results
O=C1OCC1CCCCc1ccccc1 (racemic) [compound 23, rac-3-(4-Phenylbutyl)oxetan-2-one] | low potency | –
O=C(CCc1ccccc1)N[C@H]1COC1=O [7a, (S)-N-(2-Oxo-3-oxetanyl)-3-phenylpropionamide] | – | inhibition of monoacylglycerol lipase (monoacylglycerol lipase): no inhibition; mechanism of NAAA inhibition (recombinant rat NAAA [2]): non-competitive; inhibition of FAAH (FAAH): no inhibition; inhibition of diacylglycerol lipase type-α [3]: no inhibition
O=C(N[C@H]1COC1=O)c1ccc(-c2ccccc2)cc1 [7h, (S)-N-(2-Oxo-3-oxetanyl)biphenyl-4-carboxamide] | – | mechanism of NAAA inhibition (recombinant rat NAAA [1]; preincubation time-course, Michaelis-Menten analysis, overnight dialysis): rapid, noncompetitive and reversible; Vmax ([4]; 100 nM inhibitor): 10.8 ± 2.5 nmol/min/mg; Vmax ([4]; 200 nM inhibitor): 6.2 ± 0.2 nmol/min/mg
O=C(CCc1ccccc1)N[C@H]1CCOC1=O [11a, (S)-N-(2-Oxotetrahydrofuran-3-yl)-3-phenylpropionamide] | entirely devoid of inhibitory activity | –
O=C(N[C@H]1CCOC1=O)c1ccc2ccccc2c1 [11j, (S)-N-(2-Oxotetrahydrofuran-3-yl)-2-naphthamide] | inactivity | –
C[C@H]1OC(=O)[C@H]1NC(=O)CCc1ccccc1 [20a, (2R,3S)-N-(2-Methyl-4-oxo-3-oxetanyl)-3-phenylpropionamide] | complete loss of activity | –
O=C(CCc1ccccc1)N[C@@H](CO)C(=O)O [compound 10, (S)-3-Hydroxy-2-(3-Phenylpropionylamino)propionic Acid] | entirely devoid of inhibitory activity | –
O=C(CCc1ccccc1)NC1CCC1 [compound 12, N-Cyclobutyl-3-phenylpropionamide] | entirely devoid of inhibitory activity | –
O=C(CCc1ccccc1)NC1CCC1=O (centres unmarked) [compound 15, N-(2-Oxocyclobutyl)-3-phenylpropionamide] | entirely devoid of inhibitory activity | –
